The results in this text go back to ChEMBL document CHEMBL3856210, “Discovery of in vitro antitubercular agents through in silico ligand-based approaches” (Eur J Med Chem, 2016).

≈ marks a conversion by molar mass, not a printed value. A value given as a limit tells only on which side of the number the result lay.

Data set [1] is described as follows: Antitubercular activity against Mycobacterium tuberculosis H37Ra ATCC 25177 after 21 days by agar dilution method. It is filed as functional. The conditions noted are these: ATCC 25177, 504 h.
Data set [2] is described as follows: Drug level in human liver microsomes assessed as CYP450-mediated compound formation treated with (+/-)-1-(4-Chlorophenyl)-2-(1H-imidazol-1-yl)ethyl-4-(3,4-dichlorophenyl)piperazine-1-carboxylate at 50 uM after 60 mins in presence of NADPH by LC-MS analysis. Type of data set: ADME. (In general: Liver microsomes are vesicles of endoplasmic reticulum, rich in cytochrome P450 enzymes.)

As a reminder, the MIC is the lowest concentration that inhibits growth of the organism. As for `Cc1[nH]n(-c2ccc(F)cc2)c(=O)c1C(=O)c1ccc(Cl)cc1`, in data set [1], it took 12.5 µg/mL (≈ 37.8 µM) to inhibit growth (MIC).
Same read-out and setting: the figure for `Cc1[nH]n(-c2ccc(Cl)cc2)c(=O)c1C(=O)c1ccc(Cl)cc1` is 6.25 µg/mL (≈ 18 µM).
For the compound `O=C(c1ccc(Cl)cc1)c1c(C(F)(F)F)[nH]n(-c2ccccc2)c1=O`, in data set [1], the MIC was greater than 64 µg/mL.
Still for that read-out and setting: as for `COCc1nn2c(=O)cc(CCc3c(C)n[nH]c3C)[nH]c2c1-c1ccc(Cl)cc1`, the figure is 16 µg/mL (≈ 38.8 µM); as for `CCCc1cc(=O)n2nc(C)c(-c3ccc(OC)c(OC)c3)c2[nH]1`, 64 µg/mL (≈ 195 µM).
Regarding `Cc1nn2c(=O)cc(Cc3ccsc3)[nH]c2c1-c1ccc(Cl)cc1`, the MIC in data set [1] is 32 µg/mL (≈ 89.9 µM).
Compound `Cc1cccc(-c2nn3c(=O)cc(CCc4c(C)n[nH]c4C)[nH]c3c2C)c1` yielded an MIC in data set [1] of 64 µg/mL (≈ 177 µM).
In turn, `CNCCC/C(=C1\C(=O)N(c2ccc(Cl)cc2)N=C1C)c1ccc(Cl)cc1` came in with a minimal inhibitory concentration (MIC) in data set [1] of 64 µg/mL (≈ 159 µM).
The same measure, in the same setting: as for `CC1=NN(c2ccc(Cl)cc2)C(=O)/C1=C\N1CCNCC1C(=O)c1ccco1` (stereo not drawn), the figure is 32 µg/mL (≈ 80.2 µM); as for `Cc1n[nH]c(C)c1CCc1cc(=O)n2nc(C)c(-c3ccc(Cl)cc3)c2[nH]1`, 8 µg/mL (≈ 20.9 µM).
As for `O=C(OC(c1ccc(Cl)cc1)C(O)n1ccnc1)N1CCN(c2ccc(Cl)c(Cl)c2)CC1` (stereo not drawn), the Drug metabolism entry in data set [2] is “Metabolite_Detected”.
The compound `Cc1c(-c2cccc(Cl)c2)nn2c(=O)cc(CCCN3CCOCC3)[nH]c12` showed an MIC in data set [1] of 32 µg/mL (≈ 82.7 µM).
For `COc1ccc(-c2cnn3c(=O)c4c([nH]c23)CCCC4)cc1OC`, the MIC in data set [1] stood at 32 µg/mL (≈ 98.4 µM).
As for `Fc1ccc([C@H](c2cn(Cc3ccccc3)nn2)n2ccnc2)cc1`, the MIC in data set [1] came to 64 µg/mL (≈ 192 µM). This MIC lies about 2-fold higher than the previous one.
Still for that read-out and setting: the figure for `Cc1nn(-c2ccccc2)c(O)c1C(=O)c1ccc(Cl)cc1` is 6.25 µg/mL (≈ 20 µM); for `Fc1ccc([C@H](c2cn(-c3ccccc3)nn2)n2ccnc2)cc1` it is 32 µg/mL (≈ 100 µM).
Same read-out and setting: as for `CC1=NN(c2ccc(Cl)cc2)C(=O)/C1=C\N(C)C`, the figure is greater than 64 µg/mL.
`CC1=NN(c2ccc(Cl)cc2)C(=O)/C1=C\N1CCN(c2ccccc2)CC1`: in data set [1], the lowest concentration to inhibit growth (MIC) was 64 µg/mL (≈ 168 µM).
With `CC1=NN(c2ccc(Cl)cc2)C(=O)/C1=C(/c1ccc(Cl)cc1)N1CCOCC1`, the MIC in data set [1] is 4 µg/mL (≈ 9.61 µM).
Still for that read-out and setting: the figure for `CC(=O)N1CCN(/C=C2\C(=O)N(c3ccc(Cl)cc3)N=C2C)CC1` is 64 µg/mL (≈ 185 µM); for `CC1=NN(c2ccc(Cl)cc2)C(=O)/C1=C(/c1ccc(Cl)cc1)N1CCSCC1` it is 8 µg/mL (≈ 18.5 µM); for `CC1=NN(c2ccc(Cl)cc2)C(=O)/C1=C\N1CCN(CCO)CC1` it is 64 µg/mL (≈ 183 µM).
On the same count and under the same terms, as for `CC1=NN(c2ccc(Cl)cc2)C(=O)/C1=C(/c1ccc(Cl)cc1)N1CCC(C)CC1`, the figure is 64 µg/mL (≈ 149 µM); as for `CC1=NN(c2ccccc2)C(=O)/C1=C(/c1ccc(Cl)cc1)N1CCN(C)CC1`, 8 µg/mL (≈ 20.3 µM).
On the same count and under the same terms, as for `CC1=NN(c2ccccc2)C(=O)/C1=C(/c1ccc(Cl)cc1)N1CCOCC1`, the figure is 16 µg/mL (≈ 41.9 µM); as for `CC1=NN(c2ccc(Cl)cc2)C(=O)/C1=C(/c1ccc(Cl)cc1)N1CCN(C)CC1`, 4 µg/mL (≈ 9.32 µM); as for `CC1=NN(c2ccc(Cl)cc2)C(=O)/C1=C(/c1ccc(Cl)cc1)N1CCCCC1`, greater than 64 µg/mL.
Compound `CC1=NN(c2ccc(Cl)cc2)C(=O)/C1=C(/c1ccc(Cl)cc1)N(C)C` yielded an MIC in data set [1] of 16 µg/mL (≈ 42.7 µM).
On the same count and under the same terms, as for `CC1=NN(c2ccccc2)C(=O)/C1=C(/c1ccc(Cl)cc1)N1CCSCC1`, the figure is 8 µg/mL (≈ 20.1 µM); as for `CC1=NN(c2ccccc2)C(=O)/C1=C(/c1ccc(Cl)cc1)N(C)C`, 32 µg/mL (≈ 94.2 µM).
As for `CC1=NN(c2ccc(Cl)cc2)C(=O)/C1=C\Nc1ccccc1`, in data set [1], the MIC came out at 64 µg/mL (≈ 205 µM).
On the same count and under the same terms, as for `CC1=NN(c2ccc(Cl)cc2)C(=O)/C1=C\N1CCOCC1`, the figure is 64 µg/mL (≈ 209 µM); as for `CC1=NN(c2ccc(Cl)cc2)C(=O)/C1=C\N1CCN(C)CC1`, 64 µg/mL (≈ 201 µM).
Same read-out and setting: as for `O=C(COc1ccccc1)OC(Cn1ccnc1)c1ccc(Cl)cc1` (racemic), the figure is 64 µg/mL (≈ 179 µM); as for `O=C(OC(Cn1ccnc1)c1ccc(Cl)cc1)N1CCN(c2ccc([N+](=O)[O-])cc2)CC1` (racemic), 16 µg/mL (≈ 35.1 µM).
For `O=C(OC(Cc1ccccc1)c1ccc(Cl)cc1)N1CCN(c2ccc(Cl)c(Cl)c2)CC1` (racemic), in data set [1], the MIC came out at 64 µg/mL (≈ 131 µM).
Consider `O=C(OC(Cn1ccnc1)c1ccc(Cl)cc1)N1CCN(c2ccc(Cl)c(Cl)c2)CC1` (racemic), for which 4 µg/mL (≈ 8.34 µM) was the least that counted as inhibitory in data set [1] (MIC).
Still for that read-out and setting: as for `O=C(OC(Cn1cccc1)c1ccc(Cl)cc1)N1CCN(c2ccc(Cl)c(Cl)c2)CC1` (racemic), the figure is 64 µg/mL (≈ 134 µM).
